Test results from publication PMC11954892, “β-Carotene alleviates substrate inhibition caused by asymmetric cooperativity” (Nature Communications, 2025).

Experiments:
NbUGT72AY1 [1] = target: T1, NbUGT72AY1 (Nicotiana benthamiana, UniProt A0A8K1ZRH3); experiment: UDP-Glo glucosyltransferase assay, purified enzyme (reactivation of substrate-inhibited enzyme); assay type: biochemical; design: N-terminal GST tag
T1 sequence (A0A8K1ZRH3 1-477): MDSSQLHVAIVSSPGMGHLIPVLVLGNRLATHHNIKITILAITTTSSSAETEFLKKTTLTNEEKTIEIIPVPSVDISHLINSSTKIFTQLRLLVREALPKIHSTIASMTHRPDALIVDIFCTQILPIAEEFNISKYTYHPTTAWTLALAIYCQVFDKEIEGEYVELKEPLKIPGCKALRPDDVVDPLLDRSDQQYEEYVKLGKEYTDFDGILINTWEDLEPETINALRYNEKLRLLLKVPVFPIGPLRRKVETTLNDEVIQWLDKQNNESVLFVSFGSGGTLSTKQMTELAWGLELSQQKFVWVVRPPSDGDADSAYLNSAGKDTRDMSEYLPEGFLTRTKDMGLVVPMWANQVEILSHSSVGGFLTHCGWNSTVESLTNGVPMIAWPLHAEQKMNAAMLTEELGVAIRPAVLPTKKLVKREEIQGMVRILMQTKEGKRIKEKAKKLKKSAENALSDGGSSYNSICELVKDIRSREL

NbUGT72AY1 [2] = target: T1, NbUGT72AY1; experiment: ITC ([…] stoichiometry); co-crystal structures; HDX-MS; enzyme kinetics; assay type: binding
NbUGT72AY1 [3] = target: T1, NbUGT72AY1; experiment: HDX-MS; inhibition of UDPG glucohydrolase and relief of substrate inhibition (UDP-Glo, purified enzyme); assay type: binding
NbUGT72AY1 [4] = target: T1, NbUGT72AY1; experiment: HDX-MS; CD; inhibition of UDPG glucohydrolase and relief of substrate inhibition (UDP-Glo, purified enzyme); assay type: binding
NbUGT72AY1 [5] = target: T1, NbUGT72AY1; experiment: X-ray co-crystal structure (ternary complex with scopoletin); assay type: binding

SMILES: CC(C)=CCC/C(C)=C/C=C/C(C)=C/C=C/C(C)=C/C=C/C=C(C)/C=C/C=C(C)/C=C/C=C(\C)CCC=C(C)C [lycopene]
- UDP-Glo glucosyltransferase assay, purified enzyme (reactivation of substrate-in) (NbUGT72AY1 [1]): Even acyclic lycopene shows a concentration-dependent reactivation of the substrate-inhibited enzyme.

SMILES: COc1cc2ccc(=O)oc2cc1O [scopoletin]
- Kd (NbUGT72AY1 [2]): 4.5 ± 1.1 µM

SMILES: CC1=C(/C=C/C(C)=C/C=C/C(C)=C/C=C/C=C(C)/C=C/C=C(\C)C=O)C(C)(C)CCC1 [β-apo-8’-carotenal]
- HDX-MS; inhibition of UDPG glucohydrolase and relief of substrate inhibition (UD) (NbUGT72AY1 [3]): concentration-dependent reactivation of the substrate-inhibited enzyme by β-carotene, β-apo-8’-carotenal, and retinol was detected

SMILES: CC1=C(/C=C/C(C)=C/C=C/C(C)=C/CO)C(C)(C)CCC1 [retinol]
- HDX-MS; inhibition of UDPG glucohydrolase and relief of substrate inhibition (UD) (NbUGT72AY1 [3]): concentration-dependent reactivation of the substrate-inhibited enzyme by β-carotene, β-apo-8’-carotenal, and retinol was detected

SMILES: CC1=C(/C=C/C(C)=C/C=C/C(C)=C/C=C/C=C(C)/C=C/C=C(C)/C=C/C2=C(C)CCCC2(C)C)C(C)(C)CCC1 [β-carotene]
- HDX-MS; CD; inhibition of UDPG glucohydrolase and relief of substrate inhibition (NbUGT72AY1 [4]): with β-carotene being the most potent in suppressing glucohydrolase activity in accordance with its strong inhibition of SI

SMILES: O=c1ccn([C@@H]2O[C@H](COP(=O)(O)OP(=O)(O)O[C@H]3O[C@H](CO)[C@@H](O)[C@H](O)[C@H]3F)[C@@H](O)[C@H]2O)c(=O)[nH]1 [UDP2FG]
- X-ray co-crystal structure (ternary complex with scopoletin) (NbUGT72AY1 [5]): ternary complex V (NbUGT72AY1•scopoletin/UDP2FG: 9J9K) most of the protein residues are visible in the electron density maps
